Assay results reported in ChEMBL document CHEMBL1201862, “PubChem BioAssay data set” (2004).
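1) Cells in 96-well plates. 2) Compound, 48 h, 5 concentrations. 3) Linear interpolation between surrounding doses. 4) Unreached endpoint = highest concentration. GI50 is the concentration that inhibits growth by half.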 Calls of active or inactive are those of the source. Cut-off read from the data, not from the text of the source: active = GI50 up to about 1.1 µM and inactive = higher.

Legend:
Assay in all cases: DTP human tumour cell line panel, 48 h
NCI-H226 = system: NCI-H226
NCI-H522 = system: NCI-H522
UACC-257 = system: UACC-257
SK-MEL-28 = system: SK-MEL-28
COLO 205 = system: COLO 205
UO-31 = system: UO-31
NCI-H460 = system: NCI-H460
SNB-75 = system: SNB-75
SN12C = system: SN12C
OVCAR-8 = system: OVCAR-8
RPMI-8226 = system: RPMI-8226
HL-60 = system: HL-60
SK-OV-3 = system: SK-OV-3
SF-295 = system: SF-295
IGROV-1 = system: IGROV-1
LOX IMVI = system: LOX IMVI
SW-620 = system: SW-620
CAKI-1 = system: CAKI-1

Measured: GI50

O=C1CCCC2COc3ccc(O)c1c32 (stereo not drawn)
inactive: NCI-H226 > 100 µM | NCI-H522 > 100 µM | UACC-257 > 100 µM | SK-MEL-28 > 100 µM | COLO 205 > 100 µM | UO-31 > 100 µM | NCI-H460 > 100 µM | SNB-75 > 100 µM | SN12C > 100 µM | OVCAR-8 > 100 µM | RPMI-8226 > 100 µM | HL-60 > 100 µM | SK-OV-3 > 100 µM | SF-295 > 100 µM | IGROV-1 > 100 µM

C/C(CC(=O)Nc1ccccc1C)=N/NS(=O)(=O)c1ccc(C)cc1
inactive: NCI-H226 > 100 µM | NCI-H522 > 100 µM | UACC-257 > 100 µM | SK-MEL-28 > 100 µM | LOX IMVI > 100 µM | COLO 205 > 100 µM | UO-31 > 100 µM | NCI-H460 > 100 µM | SNB-75 > 100 µM | SW-620 > 100 µM | OVCAR-8 > 100 µM | RPMI-8226 > 100 µM | HL-60 > 100 µM | SK-OV-3 > 100 µM | SF-295 > 100 µM | IGROV-1 > 100 µM

CO[C@H](c1ccccc1)[C@H](C)N(C)c1ccc2ccccc2c1C1=NC(C)(C)CO1
inactive: NCI-H226 16.2 µM | NCI-H522 4.21 µM | UACC-257 15.7 µM | SK-MEL-28 18.3 µM | COLO 205 13.8 µM | UO-31 13.7 µM | NCI-H460 16 µM | CAKI-1 > 10 µM | SNB-75 15.5 µM | SN12C 18 µM | SW-620 15.9 µM | OVCAR-8 13.8 µM | RPMI-8226 15.6 µM | HL-60 21.3 µM | SK-OV-3 19.2 µM | SF-295 15.5 µM | IGROV-1 33.1 µM

Cc1c(Cl)c2ccccc2n1S(=O)(=O)c1ccccc1
inactive: NCI-H226 37 µM | NCI-H522 19.6 µM | UACC-257 53.1 µM | SK-MEL-28 > 100 µM | COLO 205 > 100 µM | UO-31 26.1 µM | NCI-H460 44.6 µM | CAKI-1 58.7 µM | SNB-75 19.9 µM | SW-620 38.5 µM | OVCAR-8 52.6 µM | RPMI-8226 27.8 µM | HL-60 25.8 µM | SF-295 46.5 µM | IGROV-1 > 100 µM

O/N=C1/C(=C/c2ccc(Cl)c(Cl)c2)CCCC1C(NO)c1ccc(Cl)c(Cl)c1 (stereo not drawn)
inactive: NCI-H522 10.1 µM | UACC-257 18.7 µM | SK-MEL-28 17.9 µM | COLO 205 18.3 µM | UO-31 18.7 µM | NCI-H460 21.1 µM | CAKI-1 18.8 µM | SNB-75 16.6 µM | SN12C 17.8 µM | SW-620 17.9 µM | OVCAR-8 18.7 µM | RPMI-8226 17.1 µM | HL-60 17.6 µM | SK-OV-3 20.4 µM | IGROV-1 19.9 µM

C/C(=N/N)c1ccc2[nH]c3c(C)cc([N+](=O)[O-])c(C)c3c2c1
inactive: NCI-H226 14.3 µM | NCI-H522 8.51 µM | UACC-257 18.6 µM | SK-MEL-28 6.07 µM | LOX IMVI 4.99 µM | COLO 205 11.5 µM | UO-31 10.5 µM | NCI-H460 5.87 µM | CAKI-1 > 10 µM | SNB-75 22.9 µM | SN12C 3.95 µM | SW-620 7.53 µM | OVCAR-8 5.3 µM | RPMI-8226 8.97 µM | HL-60 > 100 µM | SF-295 17.1 µM

COc1ccc([N+]2=NC(c3ccc([N+](=O)[O-])cc3)=NN(c3ccccc3)C2)cc1.[O-][Cl+3]([O-])([O-])[O-]
inactive: NCI-H226 > 100 µM | NCI-H522 3.65 µM | UACC-257 > 100 µM | SK-MEL-28 > 100 µM | LOX IMVI 68.5 µM | COLO 205 10 µM | UO-31 51.5 µM | NCI-H460 64.6 µM | SN12C > 100 µM | SW-620 > 100 µM | OVCAR-8 > 100 µM | RPMI-8226 33 µM | HL-60 22.3 µM | SF-295 74.8 µM | IGROV-1 33.2 µM

CC1(O)C(C)(O)C2(C)O[Te]3(OC12C)OC1(C)C(C)(O)C(C)(O)C1(C)O3 (stereo not drawn)
inactive: NCI-H226 29.4 µM | NCI-H522 17.8 µM | UACC-257 > 100 µM | SK-MEL-28 16.2 µM | LOX IMVI 4.41 µM | COLO 205 > 100 µM | UO-31 27.5 µM | NCI-H460 3.32 µM | SNB-75 > 100 µM | SN12C 23.1 µM | SW-620 > 10 µM | OVCAR-8 16.1 µM | RPMI-8226 15.5 µM | HL-60 10.6 µM | SK-OV-3 > 10 µM | SF-295 15.3 µM | IGROV-1 12.3 µM

O=C1N[C@H](Cc2c[nH]cn2)C(=O)N2CCC[C@@H]12
inactive: NCI-H522 > 100 µM | UACC-257 > 100 µM | SK-MEL-28 > 100 µM | LOX IMVI > 100 µM | COLO 205 > 100 µM | UO-31 > 100 µM | NCI-H460 > 100 µM | CAKI-1 > 100 µM | SNB-75 65.8 µM | SN12C > 100 µM | SW-620 > 100 µM | OVCAR-8 > 100 µM | RPMI-8226 > 100 µM | HL-60 > 100 µM | SK-OV-3 > 100 µM | SF-295 > 100 µM | IGROV-1 > 100 µM
